Reference: paper PMC10861593, “Kisspeptin-10 binding to Gpr54 in osteoclasts prevents bone loss by activating Dusp18-mediated dephosphorylation of Src” (Nature Communications, 2024)
Entries after “also recorded” stand apart in the source; their conditions may differ.

Legend:
[1] = test system: Dusp18 / Gpr54 interaction; assay: Co-IP: interaction of Dusp18 with Gpr54 in RAW264.7 cells; format: cell-based, mouse
Procedure: Beads were analyzed by phosphatase activity assay (a), mass spectrometry assay (b), IB analysis (c) and quantification of protein levels (d). e, f Protein co-localization was analyzed by IF staining in primary pre-osteoclast with 10 nM Kp-10 treatment for 20 min. […] Scale bar, 50 µm. g, h binding affinity was measured by SPR binding analysis. […] Data represent means ± SEM. P values were determined by one-way ANOVA analysis (a, d, j, l) or two-tailed Student’s t-test (f). Representative results were obtained from at least three independent experiments. Source data are provided as a Source Data file.
(§1) Whole-cell proteins were extracted using 1x RIPA buffer (25 mM Tris, pH7.5, 150 mM NaCl, 0.5% Sodium deoxycholate, 1% Triton-X-100) supplemented with protease inhibitors (Complete Mini, Roche) and phosphatase inhibitors (phosphatase inhibitor cocktail set I and II, Calbiochem). Immunoprecipitation and immunoblotting with indicated antibodies were performed as described in Supplementary Table 1. Image Jsoftware (V1.52) was used for quantification analysis. Uncropped and unprocessed blots are presented in the Supplementary Information file.

[2] = test system: DUSP18 / GPR54 interaction; assay: Co-IP: interaction of DUSP18 with GPR54 in transfected 293T cells; format: cell-based, human; conditions: 293T cells transfected with DUSP18-HA and GPR54-Flag, Kp-10 (10 nM) 20 min
Procedure: Data represent means ± SEM. P values were determined by one-way ANOVA analysis (b, c, e, g, i, k). Representative results were obtained from at least three independent experiments. Source data are provided as a Source Data file.
as §1
Supplementary Fig. 6 a, b IB and quantification of protein levels analysis. […] Error bars are ± SEM. P-values were determined by two-tailed Student’s t-test (b, e) or by one-way ANOVA analysis (h, j). *P <0.05, **P <0.01, ***P <0.001, ****P <0.0001. Representative results were observed from at least three independent experiments. Source data are provided as a Source Data file.

[3] = test system: DUSP18, Src, and GPR54 complex; assay: Co-IP: DUSP18, Src and GPR54 heterotrimer complex formation in transfected 293T cells; format: cell-based; conditions: 293T with HA-Src, GPR54-Myc, DUSP18 (C104S)-Flag, Kp-10 20 min
Procedure: Anti-Flag IP derived from 293 T cells transfected with HA-Src and either DUSP18-Flag or DUSP18 (C104S)-Flag constructs with or without Kp-10 treatment for 20 min were lysed and subjected to anti-FLAG IP (b). Phosphatase reaction products using His-DUSP18 and His-DUSP18 (C104S) proteins purified from E. coli and SRC proteins purified from Sf9 insect cells (c) and quantification of protein levels (d). Anti-Src IP derived from RAW264.7 cells treated with or without Kp-10 treatment for 20 min were lysed and subjected to anti-Src IP (e) and quantification of protein levels (f). g, h Src and Dusp18 co-localization was analyzed by IF staining in primary pre-osteoclasts treated with 10 nM Kp-10 treatment for 20 min. Representative images of endogenous Dusp18 and Src were shown by TIRF microscopy (g), and MOC was used to quantify the degree of colocalization in cells from multiple images taken randomly (h). Scale bar, 50 µm. i–m IB and quantification of protein levels analysis. Anti-Flag IP derived from 293 T cells transfected with HA-Src, GPR54-myc, and either DUSP18-Flag or DUSP18 (C104S)-Flag constructs after Kp-10 treatment for 20 min (i) and quantification of protein levels (j, k). […] Scale bars, 125 µm (n), and pits depth were quantified by confocal microscopy (o). […] P values were determined by one-way ANOVA analysis (d, f, j, k, m, o) or by two-tailed Student’s t-test (h). […]

[4] = test system: osteoclast formation from BMMs; assay: TRAP staining of osteoclast formation from BMMs; format: cell-based, mouse
[5] = test system: osteoclast bone resorption; assay: pit assay (bone resorption); format: cell-based, mouse; conditions: for bone resorption: dentin slices, 5–7 days
[6] = test system: osteoblast differentiation; assay: osteoblast differentiation; format: cell-based, mouse
Procedure: For osteoblast differentiation analyses in vitro, we isolated bone marrow mesenchymal stem cells (MSCs) from femurs and tibias of 8-week-old WT and Kiss1^−/−, Gpr54^−/− and Dusp18^−/− mice using a 1 ml syringe with a 26 G needle. MSCs were seeded into 12-well plates at a concentration of 1 × 10^5 cells per well. Cells were incubated with 50 µg/mL ascorbic acid, 10 mmol/L beta-glycerophosphate and 10 nmol/L dexamethasone. The medium was replaced every 2 days during the incubation period. Alkaline phosphatase (ALP) activity was assayed using the assay mixtures containing 0.1 M 2-amino-2-methyl-1-propanol, 1 mM MgCl2, 8 mM p-nitrophenylphosphate disodium (Sigma). For determination of mineralization, cells were fixed with 95% ethanol and stained with AgNO3 by the von Kossa method.

[7] = test system: osteoblast differentiation; conditions: in vitro, KP-10 5 and 50 μM; ref 46 (Son et al.); cited from earlier work
Description: Typically, GPCR activation with increasing of ligand concentration generates different signalings and phenotypes. […] Furthermore, we foun ...

In the case of Kisspeptin-10 [Kp-10], the “recruitment of Src and Dusp18 by Gpr54, 10 nM” value ([1]; 10 nM Kp-10, Co-IP and IF) is reported as “more significantly recruited”, the “interaction of Dusp18 with Gpr54” value ([1]; RAW264.7 cells, indicated dose of Kp-10 for 20 min) is reported as “dose-dependently induced the interaction of Dusp18 with Gpr54” and the “interaction of DUSP18 with GPR54” value [2] is reported as “dose-dependently induced the interaction”. For the same substance, the “heterotrimer complex formation with DUSP18 (C104S)” value [3] was “but not when the catalytic center of DUSP18 was killed”, the osteoclast formation ([4]; Arrb1 knockout BMMs) was “still suppressed by Kp-10; also recorded: still blocked osteoclast formation” and the osteoclast formation ([4]; Arrb2 knockout BMMs) was “still suppressed by Kp-10; also recorded: still blocked osteoclast formation”. For the same substance, the “bone resorption (pit formation, pit depth)” value ([5]; Dusp18 WT osteoclasts) was “bone resorption was suppressed”, the bone resorption ([5]; Gpr54-WT osteoclasts) was “suppressed bone resorption” and the bone resorption ([5]; Gpr54 knockout osteoclasts) was “did not have a significant effect”. The “osteoblast differentiation, low dose” value ([6]; Kp-10 0.01 nM and 0.1 nM) was “effectively suppressed osteoblast differentiation”, the osteoblast differentiation ([6]; upon Kp-10 stimulation, ALP and von Kossa staining) was “dose-dependently suppressed” and the “osteoblast differentiation at 5 and 50 μM” value [7] was “stimulated osteoblast differentiation in vitro”.
